Source: patent US9302999B2, “Substituted triazoles as herbicides” (E. I. DU PONT DE NEMOURS AND COMPANY, priority 2012, dated 2016)

Columns and labels:
Type in all cases: in vivo
[1] = tested on: lambsquarters (Chenopodium album); assay: Test E pre-/postemergence: lambsquarters; settings: Preemergence, scale 0 to 100
From the text: (§1) Seeds of plant species selected from corn (Zea mays), soybean (Glycine max), velvetleaf (Abutilon theophrasti), lambsquarters (Chenopodium album), poinsettia, wild (wild poinsettia, Euphorbia heterophylla), pigweed, palmer (palmer pigweed, Amaranthus palmeri), waterhemp (common waterhemp, Amaranthus rudis), smartweed (ladysthumb smartweed, Polygonum persicaria), surinam grass (Brachiaria decumbens), crabgrass, large (large crabgrass, Digitaria sanguinalis), crabgrass, Brazil (Brazilian crabgrass, Digitaria horizontalis), panicum, fall (fall panicum, Panicum dichotomiflorum), foxtail, giant (giant foxtail, Setaria faberii), foxtail, green (green foxtail, Setaria viridis), goosegrass (Eleusine indica), johnsongrass (Sorghum halepense), ragweed (common ragweed, Ambrosia elation), barnyardgrass (Echinochloa crus-galli), sandbur (southern sandbur, Cenchrus echinatus), arrowleaf sida (Sida rhombifolia), ryegrass, Italian (Italian ryegrass, Lolium multiflorum), dayflower, (VA) (Virginia dayflower, Commelina virginica), field bindweed (Convolvulus arvensis), cocklebur (common cocklebur, Xanthium strumarium), morningglory (Ipomoea coccinea), nightshade (eastern black nightshade, Solanum ptycanthum), kochia (Kochia scoparia), nutsedge, yellow (yellow nutsedge, Cyperus esculentus) and beggarticks (hairy beggarticks, Bidens pilosa) were planted into a silt loam soil and treated preemergence with test chemicals formulated in a non-phytotoxic solvent mixture which included a surfactant. At the same time, plants selected from these crop and weed species were planted in pots containing a growing medium comprising spaghnum peat moss, vermiculite, wetting agent and starter nutrients and treated with postemergence applications of some of the test chemicals formulated in the same manner. Plants ranged in height from 2 to 18 cm for postemergence treatments (1- to 4-leaf stage).
(§2) Treated plants and controls were maintained in a greenhouse for 14 to 21 days, after which time all species were compared to controls and visually evaluated. Plant response ratings, summarized in Table E, are based on a scale of 0 to 100 where 0 is no effect and 100 is complete control. A dash (-) response means no test result.

[2] = tested on: foxtail, giant (giant foxtail, Setaria faberii); assay: Test E pre-/postemergence: foxtail, giant; settings: Preemergence, scale 0 to 100
From the text: as §1, §2

[3] = tested on: field bindweed (Convolvulus arvensis); assay: Test E pre-/postemergence: field bindweed; settings: scale 0 to 100
From the text: as §1, §2

[4] = tested on: crabgrass, Brazil (Brazilian crabgrass, Digitaria horizontalis); assay: Test E pre-/postemergence: crabgrass, Brazil; settings: scale 0 to 100
From the text: as §1, §2

[5] = tested on: panicum, fall (fall panicum, Panicum dichotomiflorum); assay: Test E pre-/postemergence: panicum, fall; settings: scale 0 to 100
From the text: as §1, §2

[6] = tested on: crabgrass, Brazil (Brazilian crabgrass, Digitaria horizontalis); assay: Test F pre-/postemergence: crabgrass, Brazil; settings: Postemergence, scale 0 to 100
From the text: (§3) Seeds of plant species selected from corn (Zea mays), soybean (Glycine max), velvetleaf (Abutilon theophrasti), lambsquarters (Chenopodium album), poinsettia, wild (wild poinsettia, Euphorbia heterophylla), pigweed, palmer (palmer pigweed, Amaranthus palmeri), waterhemp (common waterhemp, Amaranthus rudis), surinam grass (Brachiaria decumbens), crabgrass, Brazil (Brazilian crabgrass, Digitaria horizontalis), panicum, fall (fall panicum Panicum dichotomiflorum), crabgrass, large (large crabgrass, Digitaria sanguinalis), foxtail, giant (giant foxtail, Setaria faberii), foxtail, green (green foxtail Setaria viridis), goosegrass (Eleusine indica), ragweed (common ragweed, Ambrosia elatior), barnyardgrass (Echinochloa crus-galli), sandbur (southern sandbur, Cenchrus echinatus), arrowleaf sida (Sida rhombifolia), ryegrass, Italian (Italian ryegrass, Lolium multiflorum), dayflower, VA (Virginia (VA) dayflower, Commelina virginica), field bindweed (Convolvulus arvensis), cocklebur (common cocklebur, Xanthium strumarium), morningglory (Ipomoea coccinea), nightshade (eastern black nightshade, Solanum ptycanthum), kochia (Kochia scoparia), nutsedge, yellow (yellow nutsedge, Cyperus esculentus), johnsongrass (Sorghum halepense), smartweed (ladysthumb smartweed, Polygonum persicaria), and beggarticks (hairy beggarticks, Bidens pilosa), were planted into a silt loam soil and treated preemergence with test chemicals formulated in a non-phytotoxic solvent mixture which included a surfactant. At the same time, plants selected from these crop and weed species and also pigweed (Amaranthus retroflexus), waterhemp_RES1 (ALS/Triazine resistant common waterhemp, Amaranthus rudis) and waterhemp_RES2 (ALS/HPPD resistant common waterhemp, Amaranthus rudis) were planted in pots containing a planting medium comprising spaghnum peat moss, vermiculite, wetting agent and starter nutrients treated with postemergence applications of some of the test chemicals formulated in the same manner. Plants ranged in height from 2 to 18 cm for postemergence treatments (1- to 4-leaf stage).
as §2

[7] = tested on: goosegrass (Eleusine indica); assay: Test F pre-/postemergence: goosegrass; settings: Preemergence
From the text: as §3, §2

[8] = tested on: johnsongrass (Sorghum halepense); assay: Test F pre-/postemergence: johnsongrass; settings: Preemergence
From the text: as §3, §2

[9] = tested on: crabgrass, large (large crabgrass, Digitaria sanguinalis); assay: Test F pre-/postemergence: crabgrass, large; settings: Preemergence
From the text: as §3, §2

[10] = tested on: nutsedge, yellow (yellow nutsedge, Cyperus esculentus); assay: Test F pre-/postemergence: nutsedge, yellow; settings: Preemergence
From the text: as §3, §2

[11] = tested on: morningglory (Ipomoea coccinea); assay: Test F pre-/postemergence: morningglory; settings: Preemergence
From the text: as §3, §2

[12] = 16 g ai/ha, scale 0 to 100 (0 no effect, 100 complete control)
[13] = 31 g ai/ha, scale 0 to 100 (0 no effect, 100 complete control)

Cc1nn(-c2ccc(C(F)(F)F)cc2)nc1Cc1ccnc(C(F)(F)F)c1 [Compound 47, 4-[[5-methyl-2-[4-(trifluoromethyl)phenyl]-2H-1,2,3-triazol-4-yl]methyl]-2-(trifluoromethyl)pyridine]
Plant response rating: Lambsquarters ([1]; 16 g ai/ha): 95 | Plant response rating: Lambsquarters ([1]; 31 g ai/ha): 95 | Plant response rating: Lambsquarters ([1]; 62 g ai/ha): 98 | Plant response rating: Lambsquarters ([1]; 125 g ai/ha): 100 | Plant response rating: Lambsquarters ([1]; 250 g ai/ha): 100 | Plant response rating: Foxtail, Giant ([2]; 16 g ai/ha): 90 | Plant response rating: Foxtail, Giant ([2]; 31 g ai/ha): 100 | Plant response rating: Foxtail, Giant ([2]; 62 g ai/ha): 100 | Plant response rating: Foxtail, Giant ([2]; 125 g ai/ha): 100 | Plant response rating: Foxtail, Giant ([2]; 250 g ai/ha): 100 | Plant response rating: Field Bindweed ([3]; Postemergence, 250 g ai/ha): 65 | Plant response rating: Field Bindweed ([3]; Postemergence, 31 g ai/ha): 40 | Plant response rating: Field Bindweed ([3]; Preemergence, 16 g ai/ha): 25 | Plant response rating: Field Bindweed ([3]; Preemergence, 31 g ai/ha): 25 | Plant response rating: Field Bindweed ([3]; Preemergence, 62 g ai/ha): 50 | Plant response rating: Field Bindweed ([3]; Preemergence, 125 g ai/ha): 85 | Plant response rating: Field Bindweed ([3]; Preemergence, 250 g ai/ha): 100 | Plant response rating: Crabgrass, Brazil ([4]; Postemergence, 250 g ai/ha): 50 | Plant response rating: Crabgrass, Brazil ([4]; Postemergence, 16 g ai/ha): 20 | Plant response rating: Crabgrass, Brazil ([4]; Postemergence, 31 g ai/ha): 30 | Plant response rating: Crabgrass, Brazil ([4]; Postemergence, 62 g ai/ha): 40 | Plant response rating: Crabgrass, Brazil ([4]; Postemergence, 125 g ai/ha): 40 | Plant response rating: Crabgrass, Brazil ([4]; Preemergence, 16 g ai/ha): 35 | Plant response rating: Crabgrass, Brazil ([4]; Preemergence, 31 g ai/ha): 80 | Plant response rating: Crabgrass, Brazil ([4]; Preemergence, 62 g ai/ha): 100 | Plant response rating: Crabgrass, Brazil ([4]; Preemergence, 125 g ai/ha): 100 | Plant response rating: Crabgrass, Brazil ([4]; Preemergence, 250 g ai/ha): 100 | Plant response rating: Panicum, Fall ([5]; Postemergence, 250 g ai/ha): 40 | Plant response rating: Panicum, Fall ([5]; Postemergence, 16 g ai/ha): 10 | Plant response rating: Panicum, Fall ([5]; Postemergence, 31 g ai/ha): 20 | Plant response rating: Panicum, Fall ([5]; Postemergence, 62 g ai/ha): 30 | Plant response rating: Panicum, Fall ([5]; Postemergence, 125 g ai/ha): 30 | Plant response rating: Panicum, Fall ([5]; Preemergence, 16 g ai/ha): 100 | Plant response rating: Panicum, Fall ([5]; Preemergence, 31 g ai/ha): 100 | Plant response rating: Panicum, Fall ([5]; Preemergence, 62 g ai/ha): 100 | Plant response rating: Panicum, Fall ([5]; Preemergence, 125 g ai/ha): 100 | Plant response rating: Panicum, Fall ([5]; Preemergence, 250 g ai/ha): 100

Cc1nn(-c2ccc(F)c(F)c2)nc1Oc1ccnc(C(F)(F)F)c1 [Compound 145]
Plant response rating, Crabgrass, Brazil ([6]; 8 g ai/ha): 15 | Plant response rating, Crabgrass, Brazil ([6]; 16 g ai/ha): 25 | Plant response rating, Crabgrass, Brazil ([6]; 31 g ai/ha): 40 | Plant response rating, Crabgrass, Brazil ([6]; 62 g ai/ha): 40 | Plant response rating, Crabgrass, Brazil ([6]; 125 g ai/ha): 50

Cc1nn(-c2ccc(F)cc2)nc1Oc1ccnc(C(F)(F)F)c1 [Compound 129, 4-[[2-(4-fluorophenyl)-5-methyl-2H-1,2,3-triazol-4-yl]oxy]-2-(trifluoromethyl)pyridine]
Plant response rating: Lambsquarters ([1]; 8 g ai/ha): 0 | Plant response rating: Lambsquarters ([1]; 16 g ai/ha): 0 | Plant response rating: Lambsquarters ([1]; 31 g ai/ha): 0 | Plant response rating: Lambsquarters ([1]; 62 g ai/ha): 75 | Plant response rating: Lambsquarters ([1]; 125 g ai/ha): 98 | Plant response rating: Foxtail, Giant ([2]; 8 g ai/ha): 0 | Plant response rating: Foxtail, Giant ([2]; 16 g ai/ha): 20 | Plant response rating: Foxtail, Giant ([2]; 31 g ai/ha): 75 | Plant response rating: Foxtail, Giant ([2]; 62 g ai/ha): 98 | Plant response rating: Foxtail, Giant ([2]; 125 g ai/ha): 100 | Plant response rating: Field Bindweed ([3]; Preemergence, 8 g ai/ha): 0 | Plant response rating: Field Bindweed ([3]; Preemergence, 16 g ai/ha): 0 | Plant response rating: Field Bindweed ([3]; Preemergence, 31 g ai/ha): 0 | Plant response rating: Field Bindweed ([3]; Preemergence, 62 g ai/ha): 35 | Plant response rating: Field Bindweed ([3]; Preemergence, 125 g ai/ha): 35 | Plant response rating: Crabgrass, Brazil ([4]; Preemergence, 8 g ai/ha): 10 | Plant response rating: Crabgrass, Brazil ([4]; Preemergence, 16 g ai/ha): 15 | Plant response rating: Crabgrass, Brazil ([4]; Preemergence, 31 g ai/ha): 60 | Plant response rating: Crabgrass, Brazil ([4]; Preemergence, 62 g ai/ha): 95 | Plant response rating: Crabgrass, Brazil ([4]; Preemergence, 125 g ai/ha): 100 | Plant response rating: Panicum, Fall ([5]; Preemergence, 8 g ai/ha): 0 | Plant response rating: Panicum, Fall ([5]; Preemergence, 16 g ai/ha): 35 | Plant response rating: Panicum, Fall ([5]; Preemergence, 31 g ai/ha): 98 | Plant response rating: Panicum, Fall ([5]; Preemergence, 62 g ai/ha): 100 | Plant response rating: Panicum, Fall ([5]; Preemergence, 125 g ai/ha): 100

Cc1nn(-c2ccc(F)cc2)nc1Cc1ccnc(C(F)(F)F)c1 [Compound 16, 4-[[2-(4-fluorophenyl)-5-methyl-2H-1,2,3-triazol-4-yl]methyl]-2-(trifluoromethyl)pyridine]
Plant response rating: Lambsquarters ([1]; 8 g ai/ha): 0 | Plant response rating: Lambsquarters ([1]; 16 g ai/ha): 0 | Plant response rating: Lambsquarters ([1]; 31 g ai/ha): 75 | Plant response rating: Lambsquarters ([1]; 62 g ai/ha): 98 | Plant response rating: Lambsquarters ([1]; 125 g ai/ha): 98 | Plant response rating: Foxtail, Giant ([2]; 8 g ai/ha): 5 | Plant response rating: Foxtail, Giant ([2]; 16 g ai/ha): 80 | Plant response rating: Foxtail, Giant ([2]; 31 g ai/ha): 100 | Plant response rating: Foxtail, Giant ([2]; 125 g ai/ha): 100 | Plant response rating: Field Bindweed ([3]; Preemergence, 8 g ai/ha): 0 | Plant response rating: Field Bindweed ([3]; Preemergence, 16 g ai/ha): 0 | Plant response rating: Field Bindweed ([3]; Preemergence, 31 g ai/ha): 0 | Plant response rating: Field Bindweed ([3]; Preemergence, 62 g ai/ha): 20 | Plant response rating: Field Bindweed ([3]; Preemergence, 125 g ai/ha): 50 | Plant response rating: Crabgrass, Brazil ([4]; Preemergence, 8 g ai/ha): 30 | Plant response rating: Crabgrass, Brazil ([4]; Preemergence, 16 g ai/ha): 70 | Plant response rating: Crabgrass, Brazil ([4]; Preemergence, 31 g ai/ha): 95 | Plant response rating: Crabgrass, Brazil ([4]; Preemergence, 62 g ai/ha): 100 | Plant response rating: Crabgrass, Brazil ([4]; Preemergence, 125 g ai/ha): 100 | Plant response rating: Panicum, Fall ([5]; Preemergence, 8 g ai/ha): 0 | Plant response rating: Panicum, Fall ([5]; Preemergence, 16 g ai/ha): 70 | Plant response rating: Panicum, Fall ([5]; Preemergence, 31 g ai/ha): 100 | Plant response rating: Panicum, Fall ([5]; Preemergence, 62 g ai/ha): 100 | Plant response rating: Panicum, Fall ([5]; Preemergence, 125 g ai/ha): 100

Fc1ccc(-n2nc(Cc3ccnc(C(F)(F)F)c3)c(OCC(F)(F)F)n2)cc1 [Compound 142]
Plant response rating, Goosegrass [7, 12]: 40 | Plant response rating, Goosegrass [7, 13]: 70 | Plant response rating, Goosegrass ([7]; 62 g ai/ha, scale 0 to 100): 100 | Plant response rating, Goosegrass ([7]; 125 g ai/ha, scale 0 to 100): 100 | Plant response rating, Johnsongrass [8, 12]: 0 | Plant response rating, Johnsongrass [8, 13]: 5 | Plant response rating, Johnsongrass ([8]; 125 g ai/ha, scale 0 to 100): 30 | Plant response rating, Crabgrass, Large [9, 13]: 20 | Plant response rating, Crabgrass, Large ([9]; 62 g ai/ha, scale 0 to 100): 98 | Plant response rating, Crabgrass, Large ([9]; 125 g ai/ha, scale 0 to 100): 100 | Plant response rating, Nutsedge, Yellow [10, 12]: 0 | Plant response rating, Nutsedge, Yellow [10, 13]: 0 | Plant response rating, Nutsedge, Yellow ([10]; 125 g ai/ha, scale 0 to 100): 0 | Plant response rating, Morningglory [11, 12]: 0 | Plant response rating, Morningglory [11, 13]: 0 | Plant response rating, Morningglory ([11]; 125 g ai/ha, scale 0 to 100): 35
